Laboratory results from US8192962B2, “Processes for detecting toxic substances” (Daikin Industries, Ltd., priority 2001, dated 2012).

Tested on: Metabolism protein genes
Assay: DNA chip mRNA expression in yeast, metabolism protein genes (Table 7)
Assay type: cell-based, Saccharomyces cerevisiae S288C
Protocol: Yeast (Saccharomyces cerevisiae S288C (α SUC2mal mel gap2 CUP1)) were incubated at 25° C. on YPD medium (yeast extract 1%, polypepton 2%, glucose 2%). One of toxic chemical substances was added to the cells at logarithmic growth phase, and the cells were further incubated for two hours. Cells were cultured without any chemical substance in the same condition, and were used as control. Concentrations of the chemical substances were defined to inhibit the growth of the yeast but not lead to death.
After completion of the incubation, the culture was centrifuged to collect the cells. To the cells, sodium acetate buffer (50 mM sodium acetate, 10 mM EDTA, 1% SDS) was added, and the mixture was shaken at 65° C. for five minutes, followed by returning to room temperature, and obtaining the supernatant, of which the procedures were repeated two times. To the supernatant, ½ amount of a solution of phenol/chloroform was added, and the mixture was centrifuged to give a supernatant, which was added with an equal amount of chloroform, and the mixture was centrifuged to give a supernatant. To the supernatant, an equal amount of isopropanol containing 0.3 M sodium acetate was added, and the mixture was allowed to stand at room temperature for 30 minutes, after which the mixture was centrifuged to give a sediment of the whole RNAs. Seventy % ethanol was added to the sediment, and the mixture was again centrifuged to give a sediment, which was then dried and dissolved in water. mRNA was isolated from the whole RNAs as followings. In view of the fact that a poly A chain is attached to the 3′ terminus of mRNA, a polynucleotide having a poly T structure which was immobilized on the surface of latex beads was used to trap the mRNA, and then the mRNA was washed and eluted with spine column (Oligotex-dT30<Super>mRNA Purification Kit, Takara). Reverse transcription of the mRNA was conducted with a reverse transcriptase (Super Script II Reverse Transcriptase; catalogue No. 18064-014, GibcoBRL) using fluorescence-labeled nucleotides to give cDNAs that were introduced with Cy3-dUTP or Cy5-dUTP during the reverse transcription.
The labeled cDNAs were dissolved in TE buffer (10mM Tris-HCl/1 mM EDTA, pH8.0), and the solution was dropped on the DNA chip containing the whole genes of yeast (DNA Chip Research Inc. Japan) so that the cDNAs were hybridized on the DNA chip at 65° C. for over 12 hours. The fluoresces intensity of the DNA chip was read with a scanner, and the ratio relative to the fluorescence intensity resulting from the absence of chemical substance was estimated as the following, which is shown in Tables 1 to 9: […]

CCCCCCCCCCCCOS(=O)(=O)[O-].[Na+] [(18), sodium lauryl sulfate]
The level of expressed mRNA in the presence of chemical substance/The level of expressed mRNA in the absence of chemical substance (yeast gene YKL035W): 1.9
level of expressed mRNA in the presence/in the absence of chemical substance (yeast gene YKL060C): 1.7
The level of expressed mRNA in the presence of chemical substance/The level of expressed mRNA in the absence of chemical substance (yeast gene YKL091C): 2.0
The level of expressed mRNA in the presence of chemical substance/The level of expressed mRNA in the absence of chemical substance (yeast gene YKL104C): 1.1
level of expressed mRNA in the presence/in the absence of chemical substance (yeast gene YKL148C): 1.0
The level of expressed mRNA in the presence of chemical substance/The level of expressed mRNA in the absence of chemical substance (yeast gene YKL152C): 1.7
level of expressed mRNA in the presence/in the absence of chemical substance (yeast gene YKL157W): 1.5
The level of expressed mRNA in the presence of chemical substance/The level of expressed mRNA in the absence of chemical substance (yeast gene YKL213C): 1.6
The level of expressed mRNA in the presence of chemical substance/The level of expressed mRNA in the absence of chemical substance (yeast gene YKL215C): 0.9
The level of expressed mRNA in the presence of chemical substance/The level of expressed mRNA in the absence of chemical substance (yeast gene YKR009C): 2.5
level of expressed mRNA in the presence/in the absence of chemical substance (yeast gene YKR034W): 1.0
The level of expressed mRNA in the presence of chemical substance/The level of expressed mRNA in the absence of chemical substance (yeast gene YKR039W): 1.1
The level of expressed mRNA in the presence of chemical substance/The level of expressed mRNA in the absence of chemical substance (yeast gene YLL058W): 1.3
level of expressed mRNA in the presence/in the absence of chemical substance (yeast gene YLR006C): 1.0
level of expressed mRNA in the presence/in the absence of chemical substance (yeast gene YLR044C): 0.9
level of expressed mRNA in the presence/in the absence of chemical substance (yeast gene YLR056W): 1.1
level of expressed mRNA in the presence/in the absence of chemical substance (yeast gene YLR058C): 0.8
level of expressed mRNA in the presence/in the absence of chemical substance (yeast gene YLR081W): 0.9
level of expressed mRNA in the presence/in the absence of chemical substance (yeast gene YLR089C): 1.3
The level of expressed mRNA in the presence of chemical substance/The level of expressed mRNA in the absence of chemical substance (yeast gene YLR180W): 0.7
The level of expressed mRNA in the presence of chemical substance/The level of expressed mRNA in the absence of chemical substance (yeast gene YLR273C): 1.0
level of expressed mRNA in the presence/in the absence of chemical substance (yeast gene YLR284C): 8.1
The level of expressed mRNA in the presence of chemical substance/The level of expressed mRNA in the absence of chemical substance (yeast gene YLR299W): 1.4
The level of expressed mRNA in the presence of chemical substance/The level of expressed mRNA in the absence of chemical substance (yeast gene YLR300W): 0.5
level of expressed mRNA in the presence/in the absence of chemical substance (yeast gene YLR304C): 0.7
The level of expressed mRNA in the presence of chemical substance/The level of expressed mRNA in the absence of chemical substance (yeast gene YLR307W): 1.0
The level of expressed mRNA in the presence of chemical substance/The level of expressed mRNA in the absence of chemical substance (yeast gene YLR348C): 1.0
level of expressed mRNA in the presence/in the absence of chemical substance (yeast gene YLR354C): 1.5
level of expressed mRNA in the presence/in the absence of chemical substance (yeast gene YLR372W): 0.6
level of expressed mRNA in the presence/in the absence of chemical substance (yeast gene YML022W): 0.7
The level of expressed mRNA in the presence of chemical substance/The level of expressed mRNA in the absence of chemical substance (yeast gene YML054C): 1.6
The level of expressed mRNA in the presence of chemical substance/The level of expressed mRNA in the absence of chemical substance (yeast gene YML070W): 1.3
The level of expressed mRNA in the presence of chemical substance/The level of expressed mRNA in the absence of chemical substance (yeast gene YML100W): 1.5
The level of expressed mRNA in the presence of chemical substance/The level of expressed mRNA in the absence of chemical substance (yeast gene YMR008C): 1.9
level of expressed mRNA in the presence/in the absence of chemical substance (yeast gene YMR011W): 1.6
level of expressed mRNA in the presence/in the absence of chemical substance (yeast gene YMR015C): 1.0
The level of expressed mRNA in the presence of chemical substance/The level of expressed mRNA in the absence of chemical substance (yeast gene YMR020W): 2.2
The level of expressed mRNA in the presence of chemical substance/The level of expressed mRNA in the absence of chemical substance (yeast gene YMR081C): 3.0
level of expressed mRNA in the presence/in the absence of chemical substance (yeast gene YMR083W): 1.1
The level of expressed mRNA in the presence of chemical substance/The level of expressed mRNA in the absence of chemical substance (yeast gene YMR105C): 2.6
The level of expressed mRNA in the presence of chemical substance/The level of expressed mRNA in the absence of chemical substance (yeast gene YMR189W): 0.8
level of expressed mRNA in the presence/in the absence of chemical substance (yeast gene YMR205C): 0.5
level of expressed mRNA in the presence/in the absence of chemical substance (yeast gene YMR261C): 1.1
The level of expressed mRNA in the presence of chemical substance/The level of expressed mRNA in the absence of chemical substance (yeast gene YMR271C): 2.2
The level of expressed mRNA in the presence of chemical substance/The level of expressed mRNA in the absence of chemical substance (yeast gene YMR296C): 0.7
level of expressed mRNA in the presence/in the absence of chemical substance (yeast gene YMR323W): 0.6
The level of expressed mRNA in the presence of chemical substance/The level of expressed mRNA in the absence of chemical substance (yeast gene YNL012W): 1.5
level of expressed mRNA in the presence/in the absence of chemical substance (yeast gene YNL025C): 1.3
The level of expressed mRNA in the presence of chemical substance/The level of expressed mRNA in the absence of chemical substance (yeast gene YNL045W): 1.1
The level of expressed mRNA in the presence of chemical substance/The level of expressed mRNA in the absence of chemical substance (yeast gene YNL104C): 0.9
The level of expressed mRNA in the presence of chemical substance/The level of expressed mRNA in the absence of chemical substance (yeast gene YNL106C): 0.9
The level of expressed mRNA in the presence of chemical substance/The level of expressed mRNA in the absence of chemical substance (yeast gene YNL169C): 1.3
level of expressed mRNA in the presence/in the absence of chemical substance (yeast gene YNL192W): 2.8
The level of expressed mRNA in the presence of chemical substance/The level of expressed mRNA in the absence of chemical substance (yeast gene YNL231C): 4.0
The level of expressed mRNA in the presence of chemical substance/The level of expressed mRNA in the absence of chemical substance (yeast gene YNL322C): 1.0
The level of expressed mRNA in the presence of chemical substance/The level of expressed mRNA in the absence of chemical substance (yeast gene YNL331C): 1.3
The level of expressed mRNA in the presence of chemical substance/The level of expressed mRNA in the absence of chemical substance (yeast gene YNL332W): 1.0
The level of expressed mRNA in the presence of chemical substance/The level of expressed mRNA in the absence of chemical substance (yeast gene YNR019W): 2.0
The level of expressed mRNA in the presence of chemical substance/The level of expressed mRNA in the absence of chemical substance (yeast gene YNR033W): 1.1
The level of expressed mRNA in the presence of chemical substance/The level of expressed mRNA in the absence of chemical substance (yeast gene YNR059W): 2.2
The level of expressed mRNA in the presence of chemical substance/The level of expressed mRNA in the absence of chemical substance (yeast gene YOL058W): 0.8
level of expressed mRNA in the presence/in the absence of chemical substance (yeast gene YOL086C): 1.3
level of expressed mRNA in the presence/in the absence of chemical substance (yeast gene YOL108C): 2.7
level of expressed mRNA in the presence/in the absence of chemical substance (yeast gene YOL116W): 1.4
The level of expressed mRNA in the presence of chemical substance/The level of expressed mRNA in the absence of chemical substance (yeast gene YOL126C): 2.4
The level of expressed mRNA in the presence of chemical substance/The level of expressed mRNA in the absence of chemical substance (yeast gene YOL153C): 1.7
level of expressed mRNA in the presence/in the absence of chemical substance (yeast gene YOL156W): 0.9
The level of expressed mRNA in the presence of chemical substance/The level of expressed mRNA in the absence of chemical substance (yeast gene YOL165C): 1.0
level of expressed mRNA in the presence/in the absence of chemical substance (yeast gene YOR002W): 1.1
level of expressed mRNA in the presence/in the absence of chemical substance (yeast gene YOR085W): 0.9
The level of expressed mRNA in the presence of chemical substance/The level of expressed mRNA in the absence of chemical substance (yeast gene YOR099W): 2.3
level of expressed mRNA in the presence/in the absence of chemical substance (yeast gene YOR103C): 1.5
level of expressed mRNA in the presence/in the absence of chemical substance (yeast gene YOR108W): 1.1
level of expressed mRNA in the presence/in the absence of chemical substance (yeast gene YOR128C): 1.2
The level of expressed mRNA in the presence of chemical substance/The level of expressed mRNA in the absence of chemical substance (yeast gene YOR130C): 1.1
level of expressed mRNA in the presence/in the absence of chemical substance (yeast gene YOR142W): 1.0
The level of expressed mRNA in the presence of chemical substance/The level of expressed mRNA in the absence of chemical substance (yeast gene YOR153W): 3.1
level of expressed mRNA in the presence/in the absence of chemical substance (yeast gene YOR176W): 2.1
level of expressed mRNA in the presence/in the absence of chemical substance (yeast gene YOR178C): 1.5
level of expressed mRNA in the presence/in the absence of chemical substance (yeast gene YOR251C): 1.3
The level of expressed mRNA in the presence of chemical substance/The level of expressed mRNA in the absence of chemical substance (yeast gene YOR336W): 1.0
The level of expressed mRNA in the presence of chemical substance/The level of expressed mRNA in the absence of chemical substance (yeast gene YOR347C): 1.3
level of expressed mRNA in the presence/in the absence of chemical substance (yeast gene YOR348C): 0.9
The level of expressed mRNA in the presence of chemical substance/The level of expressed mRNA in the absence of chemical substance (yeast gene YPL017C): 0.8
level of expressed mRNA in the presence/in the absence of chemical substance (yeast gene YPL028W): 1.8
level of expressed mRNA in the presence/in the absence of chemical substance (yeast gene YPL057C): 2.0
level of expressed mRNA in the presence/in the absence of chemical substance (yeast gene YPL135W): 1.7
The level of expressed mRNA in the presence of chemical substance/The level of expressed mRNA in the absence of chemical substance (yeast gene YPL147W): 3.6
level of expressed mRNA in the presence/in the absence of chemical substance (yeast gene YPL148C): 1.1
The level of expressed mRNA in the presence of chemical substance/The level of expressed mRNA in the absence of chemical substance (yeast gene YPR026W): 1.3
level of expressed mRNA in the presence/in the absence of chemical substance (yeast gene YPR113W): 1.9
level of expressed mRNA in the presence/in the absence of chemical substance (yeast gene YPR165W): 2.7
The level of expressed mRNA in the presence of chemical substance/The level of expressed mRNA in the absence of chemical substance (yeast gene YPR167C): 1.4
level of expressed mRNA in the presence/in the absence of chemical substance (yeast gene YPR183W): 1.0
